From a melting point compilation (Tetko et al.)

Row | Compound | melting point [°C]
1 | COc1cc(CCNC(=O)Cc2ccc(OC)c(OCc3ccccc3)c2)ccc1OCc1ccccc1 | 140
2 | Nc1c(CN2CCCCC2)c(=O)oc2ccccc12 | 190
3 | Cc1cc(=O)n2nc(C(F)(F)F)nc2[nH]1 | 214
4 | COc1ccc(OC)c2c1CC2=O | 105
5 | C=CCOc1c(Br)cc(C(C)(C)c2cc(Br)c(OCC=C)c(Br)c2)cc1Br | 119
6 | O=C(CBr)c1ccc(F)cc1 | 47
7 | O=c1[nH]c(=O)n(CCO)c2c1CCCC2 | 275 to 278
8 | NC(=S)Nc1ccc(F)cc1 | 162 to 167
9 | OC(Cc1ccccc1)C(Cc1ccccc1)=NNc1ccc(Br)cc1 (configuration not stated) | 139
10 | OCCCCCCCCCCCCBr | 34
11 | O=[N+]([O-])c1cc([N+](=O)[O-])c(Cl)cc1Cl | 101
12 | O=S(=O)(Cl)Cc1ccc(Cl)cc1 | 95
13 | Cc1nn(C)c(Cl)c1I | 64 to 65
14 | OCC(CO)(CO)CBr | 76
15 | CCCCCCCCCCCN | 16.5
16 | O=C(Nc1c[nH]c(=O)[nH]c1=O)C(F)(F)C(F)(F)C(F)(F)C(F)(F)C(F)(F)C(F)(F)C(F)(F)C(F)(F)F | 250 to 252
17 | C#CC1(O)CCC2C3CCC4CC(O)CCC4(C)C3CCC21C (configuration not stated) | 257
18 | NNC(=O)c1ccsc1 | 126 to 128
19 | N#CCCc1ccc(O)cc1 | 56
20 | O=C(O)c1cc([N+](=O)[O-])cc([N+](=O)[O-])c1Cl | 199
21 | NCc1ccc(OC2CCOCC2)cc1 | 41.5 to 43.5
22 | CC(=O)NC1C(Oc2ccc3c(C)cc(=O)oc3c2)OC(CO)C(O)C1O (configuration not stated) | 208 to 210
23 | CC12CC1(C)C(=O)N(c1cc(Cl)cc(Cl)c1)C2=O (configuration not stated) | 166

Row | Compound | melting point [°C]
24 | OCCN1CCN(c2nccc(C(F)(F)F)n2)CC1 | 70 to 71
25 | Cc1cc(Br)c(O)c2c1CCC2 | 60 to 62
26 | O=S(c1ccc(Cl)cc1)c1ccc(Cl)cc1 | 140 to 145
27 | N#CC1(N2CCCCC2)CCN(Cc2ccccc2)CC1 | 103 to 106
28 | O=C(O)C(F)(F)C(F)(F)C(F)(F)C(F)(F)C(F)(F)C(F)(F)C(F)(F)C(F)(F)C(=O)O | 154 to 160
29 | CC12CCC(=O)C=C1CCC1C2CCC2(C)C1CCC2(O)C(=O)CO (configuration not stated) | 215
30 | O=[N+]([O-])c1ccc(Cl)c(N=C=S)c1 | 67 to 70
31 | CCOC(=O)CC(=O)c1cc(OC)c(OC)c(OC)c1 | 86 to 91
32 | COC1=CC(=O)C2(C)CCC1C2(C)C (configuration not stated) | 55
33 | CCCCCCCCCC[C@H](O)CO | 69 to 72
34 | COc1ccc(C=CNC=O)cc1 | 132
35 | CCN1C(=O)CCC1=O | 26
36 | CCCC(C)(O)CCC | -82
37 | Fc1cc(F)c(F)c(-c2c(F)c(F)cc(F)c2F)c1F | 85
38 | NC(=O)c1cnccn1 | 189
39 | Cc1cc(Cl)cc(Cl)c1S(N)(=O)=O | 168 to 170
40 | CCCCOC(=O)CC(C)=O | -35.6
41 | CN(C)c1ccc(-c2c(C#N)c(N)n(N)c(=O)c2C#N)cc1 | 328 to 330
42 | Cc1c(C2(c3cc(C(C)C)c(O)c(CN(CC(=O)O)CC(=O)O)c3C)OC(=O)c3ccccc32)cc(C(C)C)c(O)c1CN(CC(=O)O)CC(=O)O | 191
43 | Nc1ccc2[nH]c(C(F)(F)F)nc2c1 | 188
44 | Cc1cc(C)nc(Cl)n1 | 34 to 36
45 | Oc1ccc2ccc3cccc4ccc1c2c34 | 180
46 | CN1CC(c2ccccc2)(c2ccccc2)C(=O)c2c(cc(-c3ccccc3)c3ccccc23)C1=O | 265

Row | Compound | melting point [°C]
47 | Cc1sc2ccccc2c1CC1=NCCN1 | 156
48 | BrCC12CC3CC(CC(C3)C1)C2 | 30 to 32
49 | O=C1c2c(O)cccc2C(C2OC(CO)C(O)C(O)C2O)c2cc(CO)cc(O)c21 (configuration not stated) | 148
50 | CCN(CCO)CCn1c(Cc2ccccc2)nc2c1c(=O)n(C)c(=O)n2C | 80
51 | C1CCC(C(C2CCCCC2)C2CCCCC2)CC1 | 48
52 | C[C@]12CC[C@H]3[C@@H](CCC4CC(=O)CC[C@@]43C)[C@@H]1CC[C@H]2OC=O (some centres not stated) | 124
53 | CCCCCCCCCCOC(C)=O | -15
54 | S=C=Nc1ccc(N2CCOCC2)cc1 | 84 to 85
55 | Cc1cc(O)c(C(C)C)cc1SC#N | 103 to 105
56 | CCCCCCCCCCCCCCC(C)CC (configuration not stated) | -6
57 | CC(=O)c1c(C)cn(C)c1C | 81 to 82
58 | O=C1CCC(=O)N1CCO | 60
59 | Cc1ccc2c(c1Cc1ccccc1)CCC1C2CCC2CCCCC21C (configuration not stated) | 95
60 | CCOCCO | -70
61 | C=C1C(=O)C23C(OC(C)=O)CC4C(C)(C)CCCC4(COC(C)=O)C2C(OC(C)=O)CC1C3OC(C)=O (configuration not stated) | 226
62 | CSc1nc2[nH]c(=S)[nH]c(=O)c2n1C | 289 to 290
63 | N#Cc1cc(C(F)(F)F)ccc1N1CCOCC1 | 53 to 55
64 | C=CCCCCCCCCCCCCCCCCC | 23
65 | C[Si]1(C)O[Si](C)(C)O[Si](C)(C)O[Si](C)(C)O[Si](C)(C)O[Si](C)(C)O1 | -3
66 | O=[N+]([O-])c1ccc(SSc2ccc([N+](=O)[O-])cc2)cc1 | 182
67 | O=C(O)CC1(CC(=O)O)CCCCC1 | 181 to 185
68 | COc1cccc(C2C(C(=O)OC(C)C)=C(C)NC(C)=C2C(=O)OC(C)C)c1OC | 141
69 | O=C(O)CCC1CCCCCCCCCCC1=O (configuration not stated) | 88 to 90

More lines, now with the values ahead:

Row | melting point [°C] | Compound
70 | 54 | C(=Nc1ccccc1)c1ccccc1
71 | 148 | CN(C)c1ccc(N=c2cc(-c3ccccc3)cc(-c3ccccc3)s2)cc1
72 | 118 | Nc1ccc(NC(=O)C(F)(F)F)cc1
73 | 155 | O=C(Nc1cccc([N+](=O)[O-])c1)c1ccccc1
74 | 187 | Cc1ccc(-c2csc(/C(C#N)=N\Nc3cc(Cl)ccc3Cl)n2)cc1
75 | 157 | CCOC(=O)C1=C(C)NC(C)=C(C(=O)OCC)C1c1ccccc1
76 | 97 | COc1ccc(-n2cncn2)cc1
77 | 128 | COc1ccccc1-c1ccc(C=NO)o1
78 | 160 | Cc1ccc(Nc2ccc([N+](=O)[O-])cc2N)cc1
79 | 293 | CC(C)Cn1cnc2c(N)nc3ccccc3c21
80 | 155 to 157 | Cc1cccc2c(O)noc12
81 | 136 to 137 | Cc1cccc(NC(=O)c2nn(-c3ccccc3)nc2C)n1
82 | 42.5 to 44.5 | Cn1ccc2cc(N=C=O)ccc21
83 | 175 | COC(=O)C1=C(C)NC(=S)NC1c1ccc([N+](=O)[O-])cc1 (configuration not stated)
84 | 76 to 78 | O=C(C=Cc1ccc(Br)o1)c1ccco1
85 | 49 | CCOC(=O)NCc1ccccc1
86 | 167 to 169 | Cn1ccc(-c2cccc(C(=O)O)c2)n1
87 | 44 | COCCc1ccc(O)cc1
88 | 174 to 175 | O=C(O)c1ccsc1Br
89 | 147 to 150 | O=C(O)c1cccc2c1CCCC2

Row | melting point [°C] | Compound
90 | 138 | O=c1[nH]nc(-c2ccccc2)c(=S)n1-c1ccc(F)c(Cl)c1
91 | 37 to 41 | OCc1ccccc1Cc1ccccc1
92 | 178 | CCc1ccccc1C(=O)N(NC(=O)c1ccccc1)C(C)(C)C
93 | 43 | COc1cc(OC)cc(C(=O)Cl)c1
94 | 142 | COc1ccc(N/N=C2\C(=O)N(CO)N=C2C(F)(F)F)cc1
95 | 221 to 225 | Cc1nc(-c2ccc3c(c2)CCO3)sc1C(=O)O
96 | 19 | O=C(OCc1ccccc1)c1ccccc1O
97 | 97.5 | CCN(CC)c1ccc(N=Nc2ccccc2)cc1
98 | 138 to 139 | NCc1cccc2c(Br)cccc12
99 | 161 | C=CCc1c(O)c(C(=O)c2ccccc2)cc(C(=O)c2ccccc2)c1O
100 | 254 to 255 | Cc1ncsc1C(=O)O
101 | 220 to 222 | COc1cc(-c2n[nH]c(=S)n2/N=C/c2ccccc2O)cc(OC)c1OC
102 | -54 | Cc1ccc(C(C)(C)C)cc1
103 | 101 | CCC(C)(C(N)=O)c1ccccc1 (configuration not stated)
104 | 30 | CCN(CC)C(=O)c1ccccc1
105 | 260 to 262 | CC1=C(C(N)=O)C(c2ccccc2)NC(=O)N1 (configuration not stated)
106 | 164 | Cc1ccc(C)c(CNC2=CC(=O)c3ccccc3C2=O)c1
107 | 17 to 20 | O=C(Cl)c1ccccc1[N+](=O)[O-]
108 | 75 to 78 | Cc1onc(-c2c(Cl)cccc2Cl)c1CC#N
109 | 127 to 128 | O=C1C=CC(=O)[C@@H]2Cc3ccccc3C[C@H]12

Row | melting point [°C] | Compound
110 | 157 to 158 | Nc1ccccc1C(=NO)c1ccccc1
111 | 199 | CC(=NNC(=O)c1ccncc1)c1ccco1
112 | 295 | NC(Cc1ccc(O)c(O)c1)C(=O)O (configuration not stated)
113 | 193 | COc1cc2cncc(Cc3ccccc3)c2cc1O
114 | 348 | O=c1cc(-c2ccc(O)cc2)oc2cc(O)cc(O)c12
115 | 130 | O=C(NC(Cc1ccco1)C(=O)O)OCC1c2ccccc2-c2ccccc21 (configuration not stated)
116 | 138 to 143 | Cc1cccc(NC(N)=O)c1
117 | 260 | NC(Cc1ccc(Cl)cc1)C(=O)O (configuration not stated)
118 | 130 to 133 | CSc1nn(-c2ccccc2)cc1C(N)=S
119 | 314 | S=c1nnc(-c2ccccc2)c(Nc2ccc(Cl)cc2)[nH]1
120 | 234 to 236 | O=C(O)[C@H]1NCC[C@@H]1c1ccccc1
121 | 181 to 183 | O=C(O)c1cccnc1Oc1ccc2c(c1)OCO2
122 | 115 | CC(C)Oc1ccc2c(=O)c(-c3ccccc3)coc2c1
123 | 145 | Cc1ccc2ccc3ccc(C)cc3c2c1
124 | 160 to 163 | CC(=O)Nc1ccc(Br)cc1C
125 | 98 to 99 | Cc1c(C(=O)CBr)sc2ccccc12
126 | 81 to 82 | CCOc1nc2ccccc2c(=O)n1CCO
127 | 80 | CC(=O)c1cccc(C(C)=O)n1
